According to patent US20080152640A1, “Means and Methods For Treating a Disease Which is Associated With an Excess Transport of Hyaluronan Across a Lipid Bilayer” (priority 2003, published 2008):
Where two headings read alike, the source gives them in different places.

Columns and labels:
human skin fibroblasts = test: Proliferation of human skin fibroblasts (cell counting); assay type: cell-based; conditions: for IC50: read-out: Proliferation (IC50)
Method: Human fibroblasts were grown in […] in Dulbecco's modified Eagles medium supplemented with streptomycin/penicillin (100 units of each/ml), kanamycin (100 units/ml) and 10% foetal calf serum. Cell proliferation was determined by cell counting after trypsinisation three days after seeding.

human fibroblasts [1] = test: Hyaluronan production of human fibroblasts (ELISA of culture medium); assay type: cell-based; conditions: for IC50: read-out: HA production (IC50); for hyaluronan in culture medium: human skin fibroblasts / fibroblast cell line, increasing concentrations, 3 days
[2] = tested on: human synovial fibroblasts; test: Growth of human synovial fibroblasts; assay type: cell-based
[3] = tested on: human synovial fibroblasts; test: Hyaluronan production of human synovial fibroblasts; assay type: cell-based
membranes from HT29 = test: Hyaluronan transport activity in isolated membranes from HT29; assay type: biochemical, human
[4] = tested on: osteoarthritic cartilage in rat knee joints; test: Iodoacetate rat model of osteoarthritis, proteoglycan loss in knee cartilage; assay type: in vivo
Method: Osteoarthritic damage was induced in the left knees iodoacetate into the synovial cavity. The right knees remained untreated and served as controls. Three rates were feed with normal drinking water and three with drinking water containing Verapamil. After 17 days the rats were sacrificed and the articular cartilage was analysed histologically. Acid polysaccharides were stained with alcian blue and the preparation was counterstained with nuclear fast red.
The animal trials were performed in accordance with the guidelines of the local ethical committee. Osteoarthritic damage was induced in the left knees of 6 Wistar rats by injection of a solution of 50 μl of 10 mM iodoacetate into the synovial cavity. […] After 17 days the rats were sacrificed and the articular cartilage was analysed histologically. […]
Male Wistar rats (Charles River, Sulzfeld, Germany) having a body weight of 150 g were fed on ordinary laboratory diet and were housed in cages with a floor area of 800 cm^2. […] After 21 days, the rats were sacrificed and the articular cartilage was analysed by histology. […] Digital photos were taken and the blue colour of the proteoglycans was quantitatively evaluated by the free Scion Image Software. To eliminate staining artefacts, the staining of proteoglycans on the joint surface was related to the staining density at the […] and expressed as percent. […]

hyaluronan synthase = conditions: for hyaluronan transport / synthase activity in membranes: membranes from human fibroblasts; for IC50: read-out: HA synthase activity (IC50), membranes of human fibroblasts
HT29 = test: Hyaluronan production of colon carcinoma cell line HT29 (versus HT29-mdr); conditions: increasing concentrations
Method: Cells were seeded in 24 multiwell dished with a diameter of 2 cm^2 at a density of 2×10^4 cells/cm^2 in Dulbecco's media containing 10% foetal bovine serum and increasing concentrations of inhibitors. After incubation for 3 days at 37° C. the cells were trypsinized and counted. The concentration of hyaluronan was determined in the culture medium by an ELISA assay [87].

hyaluronan transport = test: Inhibition of hyaluronan transport (export) from human fibroblasts, discussion of Example 9; conditions: for IC50: Homo sapiens, Fibroblast, read-out: IC50 for hyaluronan transport (export); for inhibition of hyaluronan transport (words): human fibroblasts
Method: Cells from five culture flasks (180 cm2 growth area) were washed with cold phosphate buffered saline (PBS), harvested with the aid of a rubber policeman, sedimented at 1500 g for 5 min and suspended in 30 ml of ice-cold PBS. The cells were transferred into a Parr-cell disruption bomb, exposed to a nitrogen pressure of 900 psi for 15 min and disrupted by nitrogen cavitation [18] and the particulate fraction was obtained by centrifugation at 40000 g for 20 min. […] Hyaluronan synthesis was stopped by adding a solution of 10% sodium dodecylsuifate (SDS) to a final concentration of 1%. The mixtures were applied to descending paper chromatography that was developed with ethanol/aq. 1 M ammonium acetate pH 5.5 (13:7) as solvent. After 18 h the radioactivity of [14C]hyaluronan at the origin was determined.
Trypsinised fibroblasts were suspended in Dulbecco's medium at 10^5 cells/ml and 100 μl aliquots were transferred to a 96 well microtiter plate. The first row received 200 μl of the suspension and 20 μl of the multidrug resistance inhibitors dissolved in DMSO at concentrations of 4 mM. A serial dilution to the inhibitors was established by transfer of 100 μl aliquots from the first row to the following rows. All experiments were performed in duplicates. […] The cells were incubated for 2 days at 37° C. and aliquots (5 and 20 μl) of the culture medium were used for measurement of the hyaluronan concentration in the cell culture medium by an ELISA [19]. […] The mixtures were transferred to the hyaluronan-coated test plate and incubated for 1 hour at 37° C. The microtiter plate was washed three times with buffer A and incubated with 100 μl/well of a solution of streptavidin-horseraddish-peroxidase (Amersham) at a dilution of 1:100 in phosphate buffered saline, 0.1% Tween-20 for 30 min at room temperature. The plate was washed five times with buffer A and the colour was developed by incubation with a 100 μl/well of a solution of 5 mg o-phenylenediamine and 5 μl 30% H2O2 in 10 ml of 0.1 M citrate-phosphate buffer pH 5.3 for 25 min at room temperature. The adsorption was read at 490 nm. The concentrations in the samples were calculated from a logarithmic regression curve of the hyaluronan standard solutions.
Three parameters were measured: 1. The amount of hyaluronan produced during growth into the culture supernatant. 2. The hyaluronan synthase activity in particulate membrane fractions to eliminate the possibility that inhibition of hyaluronan production in cell culture could be caused indirectly by cellular mediators. 3. The effect on cell proliferation, because hyaluronan synthesis is also required for detachment during mitosis and growth of the human HT1080 cell line [14].

MRP2 = MRP2 (Homo sapiens, UniProt Q92887); conditions: cited from earlier work
MRP3 = MRP3 (Homo sapiens, UniProt O15438); conditions: cited from earlier work
Sequence of MRP3 (O15438 whole entry): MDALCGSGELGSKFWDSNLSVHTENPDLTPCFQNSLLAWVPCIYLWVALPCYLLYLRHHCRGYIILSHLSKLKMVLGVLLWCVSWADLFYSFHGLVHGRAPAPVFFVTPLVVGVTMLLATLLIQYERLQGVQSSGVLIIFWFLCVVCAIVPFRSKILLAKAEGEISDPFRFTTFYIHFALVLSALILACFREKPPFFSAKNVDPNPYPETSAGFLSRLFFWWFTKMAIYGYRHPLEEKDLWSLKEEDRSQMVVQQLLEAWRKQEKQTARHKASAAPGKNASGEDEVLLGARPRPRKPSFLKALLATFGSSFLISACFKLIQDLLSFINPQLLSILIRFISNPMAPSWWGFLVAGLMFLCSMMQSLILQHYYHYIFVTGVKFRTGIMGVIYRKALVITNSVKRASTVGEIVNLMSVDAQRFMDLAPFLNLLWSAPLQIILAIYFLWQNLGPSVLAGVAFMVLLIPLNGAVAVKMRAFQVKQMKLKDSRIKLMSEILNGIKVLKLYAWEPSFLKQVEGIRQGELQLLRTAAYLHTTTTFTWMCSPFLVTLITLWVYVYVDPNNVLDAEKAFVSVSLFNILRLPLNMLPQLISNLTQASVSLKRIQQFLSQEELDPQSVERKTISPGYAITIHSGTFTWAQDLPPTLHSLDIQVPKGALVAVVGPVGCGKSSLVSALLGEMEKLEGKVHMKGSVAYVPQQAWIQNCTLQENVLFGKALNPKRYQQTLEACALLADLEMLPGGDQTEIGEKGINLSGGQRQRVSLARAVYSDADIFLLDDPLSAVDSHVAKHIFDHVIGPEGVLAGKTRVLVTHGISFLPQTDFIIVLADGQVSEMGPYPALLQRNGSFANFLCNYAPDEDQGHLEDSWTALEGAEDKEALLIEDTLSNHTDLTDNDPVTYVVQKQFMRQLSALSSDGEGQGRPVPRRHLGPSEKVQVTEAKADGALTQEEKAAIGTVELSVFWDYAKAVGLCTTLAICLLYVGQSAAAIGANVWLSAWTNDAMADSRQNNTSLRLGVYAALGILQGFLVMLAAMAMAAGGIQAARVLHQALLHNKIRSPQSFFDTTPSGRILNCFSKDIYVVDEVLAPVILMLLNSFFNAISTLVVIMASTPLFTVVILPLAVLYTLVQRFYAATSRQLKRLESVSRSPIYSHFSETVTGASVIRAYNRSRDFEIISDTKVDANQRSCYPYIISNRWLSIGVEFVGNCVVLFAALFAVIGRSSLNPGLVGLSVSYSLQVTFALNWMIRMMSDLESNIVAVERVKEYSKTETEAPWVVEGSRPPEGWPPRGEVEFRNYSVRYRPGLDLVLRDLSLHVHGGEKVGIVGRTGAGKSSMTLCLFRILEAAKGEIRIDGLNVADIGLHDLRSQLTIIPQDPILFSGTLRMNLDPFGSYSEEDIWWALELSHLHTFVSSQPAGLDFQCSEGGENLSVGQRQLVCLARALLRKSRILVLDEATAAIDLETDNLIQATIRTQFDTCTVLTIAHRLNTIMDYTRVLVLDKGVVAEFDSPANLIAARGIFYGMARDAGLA

MRP5 = MRP5 (Homo sapiens, UniProt O15440); conditions: cited from earlier work
Sequence of MRP5 (O15440 whole entry): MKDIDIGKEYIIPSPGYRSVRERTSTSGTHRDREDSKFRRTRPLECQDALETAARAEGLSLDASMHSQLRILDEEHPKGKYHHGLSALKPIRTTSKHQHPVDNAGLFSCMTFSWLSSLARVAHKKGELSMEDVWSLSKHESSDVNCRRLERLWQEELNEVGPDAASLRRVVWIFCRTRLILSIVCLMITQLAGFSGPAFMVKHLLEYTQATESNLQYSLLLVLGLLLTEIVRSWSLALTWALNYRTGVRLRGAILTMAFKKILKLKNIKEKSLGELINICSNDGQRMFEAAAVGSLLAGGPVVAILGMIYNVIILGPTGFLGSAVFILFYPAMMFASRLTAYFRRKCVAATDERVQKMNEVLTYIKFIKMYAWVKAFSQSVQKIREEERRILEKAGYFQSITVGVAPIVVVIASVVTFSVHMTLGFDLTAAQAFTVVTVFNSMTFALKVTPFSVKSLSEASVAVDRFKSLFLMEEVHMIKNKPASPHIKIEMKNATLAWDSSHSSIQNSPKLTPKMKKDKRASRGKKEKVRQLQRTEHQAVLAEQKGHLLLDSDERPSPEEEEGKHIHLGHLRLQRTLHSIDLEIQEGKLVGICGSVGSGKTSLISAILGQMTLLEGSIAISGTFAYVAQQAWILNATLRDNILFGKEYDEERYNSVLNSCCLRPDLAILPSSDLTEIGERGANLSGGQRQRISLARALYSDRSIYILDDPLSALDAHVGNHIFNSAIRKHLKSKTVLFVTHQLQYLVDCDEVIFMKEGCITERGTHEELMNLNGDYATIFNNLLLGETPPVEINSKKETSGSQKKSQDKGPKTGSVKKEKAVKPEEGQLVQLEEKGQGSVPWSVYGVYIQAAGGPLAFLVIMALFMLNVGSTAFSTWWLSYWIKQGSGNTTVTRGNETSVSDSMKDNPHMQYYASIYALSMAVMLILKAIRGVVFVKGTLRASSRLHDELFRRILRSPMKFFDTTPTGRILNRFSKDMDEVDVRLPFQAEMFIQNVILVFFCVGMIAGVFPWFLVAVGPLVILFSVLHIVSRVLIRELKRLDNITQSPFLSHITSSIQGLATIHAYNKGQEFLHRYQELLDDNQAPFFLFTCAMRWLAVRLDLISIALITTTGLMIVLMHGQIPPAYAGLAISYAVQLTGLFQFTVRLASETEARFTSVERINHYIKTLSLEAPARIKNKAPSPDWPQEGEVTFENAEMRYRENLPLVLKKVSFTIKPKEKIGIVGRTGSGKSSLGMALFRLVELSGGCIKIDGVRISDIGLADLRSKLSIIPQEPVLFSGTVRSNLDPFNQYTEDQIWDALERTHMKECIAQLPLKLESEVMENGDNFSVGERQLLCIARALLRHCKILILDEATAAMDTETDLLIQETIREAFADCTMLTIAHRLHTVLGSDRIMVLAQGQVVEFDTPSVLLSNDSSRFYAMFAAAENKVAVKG

MRP4 = molecular target: T1, MRP4 (Homo sapiens, UniProt O15439); conditions: cited from earlier work
T1 sequence (O15439 1-1325): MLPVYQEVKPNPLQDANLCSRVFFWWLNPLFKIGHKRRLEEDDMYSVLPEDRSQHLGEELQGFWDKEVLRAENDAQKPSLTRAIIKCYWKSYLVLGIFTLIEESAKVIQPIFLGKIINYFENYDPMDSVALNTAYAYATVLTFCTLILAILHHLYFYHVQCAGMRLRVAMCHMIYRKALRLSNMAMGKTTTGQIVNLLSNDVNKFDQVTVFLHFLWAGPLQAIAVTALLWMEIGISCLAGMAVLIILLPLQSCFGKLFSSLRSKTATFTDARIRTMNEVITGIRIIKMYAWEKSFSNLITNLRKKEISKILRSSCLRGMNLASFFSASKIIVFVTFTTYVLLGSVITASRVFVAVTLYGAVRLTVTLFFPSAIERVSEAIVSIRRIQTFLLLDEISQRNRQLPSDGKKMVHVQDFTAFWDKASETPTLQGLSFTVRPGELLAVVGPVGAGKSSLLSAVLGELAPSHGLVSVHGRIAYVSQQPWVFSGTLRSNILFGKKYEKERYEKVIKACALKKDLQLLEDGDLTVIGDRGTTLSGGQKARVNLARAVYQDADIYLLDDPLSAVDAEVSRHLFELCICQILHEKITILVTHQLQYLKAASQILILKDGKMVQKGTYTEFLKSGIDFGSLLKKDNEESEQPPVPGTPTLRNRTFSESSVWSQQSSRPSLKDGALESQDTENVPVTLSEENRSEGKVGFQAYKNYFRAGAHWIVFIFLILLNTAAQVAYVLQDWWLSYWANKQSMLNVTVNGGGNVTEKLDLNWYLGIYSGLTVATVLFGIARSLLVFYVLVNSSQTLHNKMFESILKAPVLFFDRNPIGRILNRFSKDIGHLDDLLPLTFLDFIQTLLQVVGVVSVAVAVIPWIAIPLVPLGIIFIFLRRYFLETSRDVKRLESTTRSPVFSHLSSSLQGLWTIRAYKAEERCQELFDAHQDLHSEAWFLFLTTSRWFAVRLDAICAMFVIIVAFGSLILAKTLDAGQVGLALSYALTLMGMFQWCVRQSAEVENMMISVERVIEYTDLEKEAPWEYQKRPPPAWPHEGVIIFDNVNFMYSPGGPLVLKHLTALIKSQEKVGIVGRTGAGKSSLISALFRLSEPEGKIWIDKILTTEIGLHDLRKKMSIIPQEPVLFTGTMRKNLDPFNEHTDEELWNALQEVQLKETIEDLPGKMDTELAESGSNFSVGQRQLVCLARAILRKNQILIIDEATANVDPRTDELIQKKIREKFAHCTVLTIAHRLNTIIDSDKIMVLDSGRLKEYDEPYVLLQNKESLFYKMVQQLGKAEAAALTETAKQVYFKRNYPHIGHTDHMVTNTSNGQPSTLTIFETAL

MRP1 = MRP1 (Homo sapiens, UniProt P33527); conditions: cited from earlier work
human fibroblasts [5] = test: Export of fluorescent hyaluronan oligosaccharides from the cytosol of human fibroblasts; assay type: cell-based
Method: The media were withdrawn and the cells were incubated at 37° C. with DMEM/water (3:2, v/v) for 2 min. The cells were subjected twice to this incubation sequence and then grown further in DMEM. […] Fluorescent high molecular weight hyaluronan and fluorescent oligosaccharides were introduced into the cytosol by osmotic lysis of pinocytotic vesicles. The kinetics of export was measured in a fluorescent ELISA reader in the presence and absence of the hyaluronan transport inhibitor benzbromaron.

MDR1 = MDR1 (Homo sapiens, UniProt P08183); conditions: cited from earlier work
Sequence of MDR1 (P08183 whole entry): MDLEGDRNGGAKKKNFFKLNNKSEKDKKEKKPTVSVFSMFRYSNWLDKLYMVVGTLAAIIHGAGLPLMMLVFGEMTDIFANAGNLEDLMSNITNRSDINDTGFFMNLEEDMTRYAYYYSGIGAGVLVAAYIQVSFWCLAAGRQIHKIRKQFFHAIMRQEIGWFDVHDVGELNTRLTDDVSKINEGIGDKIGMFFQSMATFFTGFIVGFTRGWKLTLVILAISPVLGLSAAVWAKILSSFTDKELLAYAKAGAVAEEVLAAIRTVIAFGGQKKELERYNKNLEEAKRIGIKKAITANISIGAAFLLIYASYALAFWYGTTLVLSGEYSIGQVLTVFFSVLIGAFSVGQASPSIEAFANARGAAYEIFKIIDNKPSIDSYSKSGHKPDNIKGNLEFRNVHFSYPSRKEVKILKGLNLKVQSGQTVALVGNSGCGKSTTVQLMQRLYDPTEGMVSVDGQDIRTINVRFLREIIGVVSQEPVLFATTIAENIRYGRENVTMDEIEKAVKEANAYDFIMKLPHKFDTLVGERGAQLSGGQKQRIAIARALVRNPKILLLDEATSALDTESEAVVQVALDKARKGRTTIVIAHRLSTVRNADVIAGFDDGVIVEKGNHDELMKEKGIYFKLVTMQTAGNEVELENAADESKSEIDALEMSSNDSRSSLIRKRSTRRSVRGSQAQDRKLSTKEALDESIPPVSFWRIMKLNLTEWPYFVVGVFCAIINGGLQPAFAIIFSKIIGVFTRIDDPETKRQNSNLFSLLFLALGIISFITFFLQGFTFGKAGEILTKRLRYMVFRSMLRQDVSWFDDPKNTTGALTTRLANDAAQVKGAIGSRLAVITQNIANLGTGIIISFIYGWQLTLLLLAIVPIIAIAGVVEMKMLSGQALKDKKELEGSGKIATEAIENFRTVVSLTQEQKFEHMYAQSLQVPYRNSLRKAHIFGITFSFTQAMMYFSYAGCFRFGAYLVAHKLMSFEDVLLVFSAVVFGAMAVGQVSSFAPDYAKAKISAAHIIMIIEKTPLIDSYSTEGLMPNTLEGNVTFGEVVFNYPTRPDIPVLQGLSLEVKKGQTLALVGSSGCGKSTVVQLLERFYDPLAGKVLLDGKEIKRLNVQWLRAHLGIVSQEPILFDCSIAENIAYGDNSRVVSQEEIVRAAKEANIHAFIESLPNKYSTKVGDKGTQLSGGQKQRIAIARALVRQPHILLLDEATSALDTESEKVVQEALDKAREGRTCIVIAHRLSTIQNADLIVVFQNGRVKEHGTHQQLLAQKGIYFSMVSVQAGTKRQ

MRP transporters = tested on: T2, MRP transporters; conditions: human erythrocytes; cited from earlier work
T2 construct: other: human erythrocytes

chloride channel = conditions: cited from earlier work
ABCA = conditions: ABCA1; read-out: IC50, secretion of macrophage inhibitory factor (ABCA1); cited from earlier work
[6] = Fibroblast, human fibroblasts, culture medium

| SMILES | IC50 (human skin fibroblasts; Homo sapiens, Skin fibroblast) [µM] | IC50 (human fibroblasts [1]; Homo sapiens, Fibroblast) [µM] | hyaluronan in culture medium (human fibroblasts [1]) | hyaluronan transport / synthase activity in membranes (hyaluronan synthase) | IC50 (hyaluronan synthase) [µM] | IC50 (hyaluronan transport) [µM] | inhibition of hyaluronan transport (words) (hyaluronan transport) | IC50 (human fibroblasts [1]; [6]) [µM] | published inhibitory concentrations IC50 or Ki, MRP2 (MRP2) | published inhibitory concentrations IC50 or Ki, MRP3 (MRP3) | published inhibitory concentrations IC50 or Ki, MRP5 (MRP5) | published inhibitory concentrations IC50 or Ki, MRP4 (MRP4) | other results |
| --- | --- | --- | --- | --- | --- | --- | --- | --- | --- | --- | --- | --- | --- |
| COc1ccc(CCN(C)CCCC(C#N)(c2ccc(OC)c(OC)c2)C(C)C)cc1OC (stereo not drawn) [Verapamil] | 20 | 15 | reduced | blocked the hyaluronan transport in a concentration dependent manner | ~50 | ~50 | inhibited also hyaluronan synthesis |  |  |  |  |  | cell growth (human skin fibroblasts; human skin fibroblasts, increasing concentrations, 3 days): reduced; growth of human synovial fibroblasts [2]: inhibited growth; hyaluronan production of human synovial fibroblasts [3]: inhibited; hyaluronan transport activity in membranes, sensitive cell line HT29 (membranes from HT29): inhibition is not complete; protection from proteoglycan loss ([4]; administered at the day of injury or three days later, analysed after 21 days): completely protected from proteoglycan loss; protection from proteoglycan loss ([4]; treatment started later than three days, up to 21 days after injury): partially prevent proteoglycan loss; hyaluronan transport in HT29 compared with HT29-mdr (HT29): more efficiently blocked hyaluronan transport in HT29 than in HT29-mdr |
| CCCCCCCCCCSC[C@H](NC(=O)CC[C@H](N)C(=O)O)C(=O)NCC(=O)O [S-decylglutathione] |  |  |  |  | 40 |  | very good inhibitor | 7 | good | low | good | good |  |
| CN(Cc1cnc2nc(N)nc(N)c2n1)c1ccc(C(=O)N[C@@H](CCC(=O)O)C(=O)O)cc1 [methotrexate] | ~200 |  |  | did not inhibit | > 400 |  | did not inhibit | ~200 | substrate | substrate | no | substrate | published inhibitory concentrations IC50 or Ki, MRP1 (MRP1): substrate |
| CCc1oc2ccccc2c1C(=O)c1cc(Br)c(O)c(Br)c1 [Benzbromarone] | 75 | 30 |  | almost completely inhibited | 12 | 25 | very effective inhibitor |  |  |  |  |  | export of fluorescent hyaluronan oligosaccharides from the cytosol (human fibroblasts [5]): inhibits the export; IC50 (MRP5; read-out: IC50 for MRP5): 150 µM; IC50 (MRP5; substrate PMEA, read-out: IC50, PMEA transport by MRP5): 150 µM; IC50 (MRP5; substrate S-(2,4-dinitrophenyl)glutathione, read-out: IC50, MRP5 mediated transport of S-(2,4-dinitrophenyl)glutathione): < 5 µM; IC50 (MDR1): > 800 µM; IC50 (MRP4; read-out: IC50, 9-(2-phosphonomethoxyethyl)adenine (PMEA) transport by MRP4, substrate PMEA): 150 µM; IC50 (MRP4; read-out: IC50 for MRP4): 150 µM; IC50 (MRP4; read-out: published inhibitory concentrations IC50 or Ki, MRP4): 150 µM; inhibition of hyaluronan transport (words) (hyaluronan transport; listed as benzbromarone): inhibited hyaluronan transport |
| O=S(=O)(O)c1cc(N=C=S)ccc1C=Cc1ccc(N=C=S)cc1S(=O)(=O)O [DIDS, 4,4-diisothiocyanatostilbene-2,2-disulfonic acid] |  |  |  |  | > 400 |  | partially |  |  |  |  |  | IC50 (human skin fibroblasts; human fibroblasts): 250 µM; IC50 (human fibroblasts [1]; human fibroblasts, culture medium): 50 µM; decrease of hyaluronan transport activity (hyaluronan synthase; membranes from human fibroblast cell line): 70%; IC50 (MRP transporters): 150 to 300 µM; Ki (chloride channel): 0.84 µM; IC50 (MRP1): 150 to 300 µM; IC50 (MRP4): 150 to 300 µM |
| COc1ccc(Cl)cc1C(=O)NCCc1ccc(S(=O)(=O)NC(=O)NC2CCCCC2)cc1 [Glyburide] | 7 |  | partially inhibited |  | 120 |  |  | ~400 |  |  |  |  | inhibition at 400 µM (human fibroblasts [1]; Homo sapiens, Fibroblast, even at 400 μM, read-out: inhibition of hyaluronan secretion): ≤ 50%; IC50 (ABCA): ~5 µM; concentration inhibiting MDR1 mediated export of colchicine (MDR1; substrate colchicine): about 100 μM; IC50 (MRP4; read-out: IC50, MRP4 mediated transport of cGMP, substrate cGMP, human erythrocytes): 1.9 µM |
